Reference: PubChem BioAssay AID504313 (Emory University Molecular Libraries Screening Center, 2011)
pIC50: −log10 of the molar value. Activity calls are given as the source filed them. The rule behind the calls is not given here.

target: X-box-binding protein 1 (Homo sapiens) (UniProt P17861); experiment: inhibitors of XBP1 reporter signal, dose response, counter-screen, cell-based (AID 504313); conditions: XBP1 reporter cell assay, percent of control;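 note: CHO cells carrying an XBP1 reporter stimulated with tunicamycin; potency is for inhibition of the tunicamycin-induced reporter signal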

| Structure (SMILES) | IC50 | pIC50 |
| --- | --- | --- |
| CC(C)(C)c1ccc(OCCNC(=S)Nc2ccccc2)cc1 | inactive | – |
| COc1cc(C(=O)O/N=C2\C=CC(=O)C(C)=C2)cc(OC)c1OC | > 10 µM (inactive) | – |
| COCCCn1c(N)c(C(=O)NCCC(C)C)c2nc3ccccc3nc21 | > 10 µM (inactive) | – |
| O=C(Cc1ccccc1)NC(=S)Nc1cccc(C(F)(F)F)c1 | inactive | – |
| Cc1ccc(-c2nc(-c3ccccn3)no2)cc1 | inactive | – |
| CC(C)(C)C1C/C(=C/c2ccco2)C(=O)/C(=C/c2ccco2)C1 (stereo not given) | > 10 µM (inactive) | – |
| Cc1cc(C(=O)CCl)c(C)n1-c1cccc(S(=O)(=O)N2CCOCC2)c1 | > 10 µM (inactive) | – |
| COC(=O)CN1C(=S)N(Cc2ccccc2)C(=O)C1CC(=O)Nc1ccc(Br)cc1 (stereo not given) | – | 5.23 |
| CCCc1cc(C(=O)Cc2ccc(F)cc2)c(O)cc1O | inactive | – |
| CC(=O)N(C1=C(Cl)C(=O)c2ccccc2C1=O)C1CCCCC1 | inactive | – |
| COC(=O)/C=C\C(=O)Nc1cccc([N+](=O)[O-])c1 | > 10 µM (inactive) | – |
| Cc1cc(C)cc(NC(=O)/C(C#N)=C/c2cn(CC(=O)NCc3ccco3)c3ccccc23)c1 | – | 5.31 |
| CC(C)=NOc1cc(NC(=O)CCl)cc([N+](=O)[O-])c1 | inactive | – |
| CC(C)(C)c1cc(S(=O)(=O)CCc2ccccn2)cc(C(C)(C)C)c1F | inactive | – |
| COc1ccc(CNc2oc(-c3cccc4ccccc34)nc2C#N)cc1 | > 10 µM (inactive) | – |
| Cc1cc(/C=N/n2cnnc2)c(C)n1-c1ccc(OCc2ccc(Cl)cc2Cl)cc1 | – | 6.46 |
| N#C/C(=C\c1ccc([N+](=O)[O-])o1)C(=O)Nc1ccc(F)cc1 | > 10 µM (inactive) | – |
| O=[N+]([O-])c1ccc(/C=N/N=C/c2ccc([N+](=O)[O-])o2)o1 | – | 5.59 |
| CCCCCCN1C=CC(=C2C(=O)c3ccccc3C2=O)C=C1 | inactive | – |
| Cc1cc(Cl)ccc1OCc1n[nH]c(=S)n1C1CCCCC1 | inactive | – |
| Fc1c(F)c(C(F)(F)F)c(F)c(F)c1N/N=C\c1cccs1 | – | 5.37 |
| CCCc1cc(=O)[nH]c(Nc2ccc(N3CCCCC3)cc2)n1 | > 10 µM (inactive) | – |
| Cc1cc(/C=N/n2cnnc2)c(C)n1-c1ccc(OCc2ccc(F)cc2)cc1 | inactive | – |
| O=C(c1ccc(Cl)cc1)c1c[nH]c(C(=O)NNc2cccc(Cl)n2)c1 | > 10 µM (inactive) | – |
| Cc1ccc(S(=O)(=O)CC#CCOC(=O)c2ccc([N+](=O)[O-])cc2)cc1 | inactive | – |

| Structure (SMILES) | IC50 | pIC50 |
| --- | --- | --- |
| NC(=O)c1ccc(C(F)(F)F)n(Cc2ccc(Cl)cc2)c1=O | inactive | – |
| N#Cc1c(N)nc(SCC(=O)C23CC4CC(CC(C4)C2)C3)c(C#N)c1-c1ccc(Cl)cc1 | > 10 µM (inactive) | – |
| CCCc1cc(-c2nc(N)ncc2-c2ccc3c(c2)OCCCO3)c(O)cc1OC | – | 5.30 |
| O=c1c(Cl)c(Cl)cnn1-c1ccccc1 | inactive | – |
| CS(=O)(=O)c1nc(-c2ccccc2)cc(C(F)(F)F)n1 | inactive | – |
| C=CCc1cccc(/C=N/NC(=O)CCCNc2ccc(C)cc2)c1O | inactive | – |
| COc1ccc(/C=C2/C(=O)ON=C2c2ccccc2)cc1OC | > 10 µM (inactive) | – |
| O=[N+]([O-])c1ccc(COc2ccc(-c3[nH]ncc3-c3ccccc3)c(O)c2)cc1 | > 10 µM (inactive) | – |
| CC(C)c1nnc(NC(=O)c2c(O)c3cccc4c3n(c2=O)CCC4)s1 | – | 5.36 |
| Cc1ccc(/C=C2\SC(=S)N(CCCC(=O)Nc3ccccn3)C2=O)cc1 | – | > 6.80 |
| Cc1ccc2c(C)nc(Nc3nc(CSc4nc5ccccc5[nH]4)cc(=O)[nH]3)nc2c1 | inactive | – |
| O=[N+]([O-])c1cc(S(=O)(=O)C(F)(F)F)ccc1Sc1nc2ccccc2[nH]1 | inactive | – |
| O=C(Nc1ccc(Oc2ccccc2)cc1)C1CCN(c2c3c(nc4ncnn24)CCC3)CC1 | > 10 µM (inactive) | – |
| Cc1cccc(NC2=C/C(=N/S(=O)(=O)c3cccs3)c3ccccc3C2=O)c1 | – | 5.88 |
| Cc1sc(NC(=O)c2cccc([N+](=O)[O-])c2)c(C(N)=O)c1-c1ccc(C(C)(C)C)cc1 | – | 5.39 |
| CC(=O)C1=C(c2ccc(Br)cc2)C(=O)c2ccccc2C1=O | – | 6.00 |
| CCCCc1nc(NCCN)c(C#N)c2c1CSC(C)(C)C2 | inactive | – |
| O=C(CCl)Nc1cn(-c2ccccc2)nc1-c1ccc(F)cc1 | > 10 µM (inactive) | – |
| CCN1CCN(Cc2ccc(NC(=O)c3ccc(C)c(NC(=O)c4c[nH]c5cc(C(F)(F)F)ccc5c4=O)c3)cc2C(F)(F)F)CC1 | – | > 6.80 |
| CCn1c(=O)c(C(=O)Nc2nc3ccccc3[nH]2)c(O)c2ccccc21 | inactive | – |
| CN(C(=O)CCl)C1CCCc2ccccc21 (stereo not given) | inactive | – |
| CCOc1cc(/C=C2/C(=O)ON=C2C)ccc1OCc1ccccc1F | > 10 µM (inactive) | – |
| CCc1ccc(-c2nc(CSCC(=O)NCc3ccco3)c(C)o2)cc1 | – | > 6.80 |
| OC(CNCC(c1ccc(Cl)cc1Cl)c1c[nH]c2ccccc12)c1ccccc1 (stereo not given) | inactive | – |
| Cc1nc(Nc2ccc(F)cc2)[nH]c(=O)c1CCC(C)C | inactive | – |

| Structure (SMILES) | IC50 | pIC50 |
| --- | --- | --- |
| COc1ccc(C(=O)/C=C/C(=O)N(CC(=O)NCCC(C)C)Cc2cccs2)c(O)c1 | inactive | – |
| CCc1ccc2c(c1)C(c1ccc([N+](=O)[O-])cc1)=NNC(c1ccc(C)cc1)=N2 | > 10 µM (inactive) | – |
| Cc1ccc(OCC(=O)N2N=C(C(F)(F)F)CC2(O)C(C)(C)C)cc1C (stereo not given) | inactive | – |
| O=C(Nc1cccc(-c2nc3ncccc3o2)c1)c1sc2ccccc2c1Cl | > 10 µM (inactive) | – |
| CC(C)Cn1c(=O)[nH]c(=O)c2c(C(F)(F)F)cc(-c3ccccc3)nc21 | > 10 µM (inactive) | – |
| CN1C(=O)/C(=C/c2cc(N=Nc3ccccc3)ccc2O)SC1=S | inactive | – |
| C#CC(=O)N(c1cc(OC)ccc1OC)C(C(=O)NC1CCCC1)c1cccs1 (stereo not given) | inactive | – |
| Cc1ccc2c(c1)c1c(n2CC(O)Cn2c(C)nc3ccccc32)CCCC1 (stereo not given) | inactive | – |
| COc1ccc(N=CC2=C(O)c3ccccc3C2=O)c(OC)c1 | inactive | – |
| CN(C)c1ccc(/C=C/c2ccc3c4ccccc4ccc3[n+]2-c2ccccc2)cc1 | – | 5.64 |
| C[C@H](NC(=O)c1[nH]cnc1C(=O)Nc1ccc(CNC(=O)OC(C)(C)C)cc1)C(=O)OC(C)(C)C | inactive | – |
| CCCCn1c(=O)[nH]c(=O)c2c1nc(-c1ccc(OCCC)c(OCC)c1)n2C | > 10 µM (inactive) | – |
| CCCCCCCCNC(C)C(O)c1ccc(SC(C)C)cc1 (stereo not given) | – | 5.32 |
| CCOc1ccc(-c2cc(CCCC(=O)NCc3ccc(C)cc3)no2)cc1 | – | 6.54 |
| CC(C)=C1C2CCC1C(C(=O)Nc1sc(C)c(-c3ccc(C(C)C)cc3)c1C(N)=O)C2C(=O)O (stereo not given) | inactive | – |
| Cc1ccc(C(C(=O)NCc2ccco2)N(C(=O)CNC(=O)c2cccs2)c2c(C)cccc2C)cc1 (stereo not given) | > 10 µM (inactive) | – |
| CC1=C(C)/C(=N\OS(=O)(=O)c2ccccc2)C=CC1=O | – | 5.54 |
| CCc1ccc(OCCNC(=O)c2ccccc2SCc2ccccc2)cc1 | > 10 µM (inactive) | – |
| O=C1/C(=C/c2ccncc2)SC(=S)N1C1CCS(=O)(=O)C1 (stereo not given) | inactive | – |
| O=C1C(Cl)=C(N2CCCCC2)C(=O)C(Cl)=C1c1cnc(N2CCCCC2)s1 | inactive | – |
| C[C@H]1C[C@@H](C)C(=O)[C@@H]([C@H](O)CC2CC(=O)NC(=O)C2)C1 | – | 6.68 |
| Cc1cc(C)c(S(=O)(=O)NCCn2c(C)cc3ccccc32)c(C)c1 | > 10 µM (inactive) | – |
| Cc1cc(C(=O)COC(=O)c2ccccc2O)c(C)n1Cc1cccs1 | < 0.16 µM (inactive) | – |
| Cc1ccc(N2C(=O)NC(=O)/C(=C\C=C\c3ccco3)C2=O)cc1C | > 10 µM (inactive) | – |
| O=C(CSC1c2ccccc2-c2ccccc21)N/N=C/c1ccccc1O | > 10 µM (inactive) | – |

| Structure (SMILES) | IC50 | pIC50 |
| --- | --- | --- |
| Oc1cccc(-c2nc3c4c(ncn3n2)-c2ccccc2CC42CCCC2)c1 | > 10 µM (inactive) | – |
| COC(=O)[C@@H]1[C@@H](C(=O)OC)C2(c3ccccc3-c3ccccc32)N(c2ccc(Cl)cc2)N1C#N | > 10 µM (inactive) | – |
| COc1ccc(C2CC(c3c(-c4ccccc4)c4cc(Cl)ccc4[nH]c3=O)=NN2S(C)(=O)=O)cc1OC (stereo not given) | inactive | – |
| O=c1c(Br)c(Br)cnn1-c1ccccc1 | inactive | – |
| CCc1ccc(OCC(=O)NC(NC(=S)Nc2ccc(C)cc2C)C(Cl)(Cl)Cl)cc1 (stereo not given) | inactive | – |
| Cc1nc2c(=O)n(C)c(=O)n(C)c2nc1Cl | inactive | – |
| CCOC(=O)c1c(N)sc(C(O)(C(F)(F)F)C(F)(F)F)c1-c1ccc(Cl)cc1 | inactive | – |
| C#CC(=O)N(c1ccc(OC)c(OC)c1)C(C(=O)NC1CCCC1)c1cccs1 (stereo not given) | inactive | – |
| O=c1c2ccccc2nc2n1CCN2Cc1ccc(Cl)cc1 | > 10 µM (inactive) | – |
| CC(C)CCn1c(=O)c(C(=O)N/N=C/c2cccc(F)c2)c(O)c2ccccc21 | – | 5.46 |
| O=C(CCl)Nc1ccc(Sc2ccc(NC(=O)CCl)cc2)cc1 | – | 5.36 |
| COc1ccc(Cn2c(SCc3cc(C)ccc3C)nc3cc(OC)c(OC)cc3c2=N)cc1 | inactive | – |
| CCCCn1c(NS(=O)(=O)c2ccc(C)cc2)c(S(=O)(=O)c2ccccc2)c2nc3ccccc3nc21 | > 10 µM (inactive) | – |
| COc1ccccc1-c1cc(C(F)(F)F)nc(S(=O)(=O)CCCC(=O)NC(C)C)n1 | inactive | – |
| COc1cc(/C=N/O)cc(Br)c1OCc1cccc(Cl)c1 | inactive | – |
| NC(=O)c1cc(-c2ccccc2)nc(N2CCCCCC2)n1 | inactive | – |
| Fc1cccc(-c2nnn3c2nc(Cl)c2ccccc23)c1 | inactive | – |
| CCCC(=O)N1CCN(c2ccc(NC(=O)c3cc4ccccc4o3)cc2Cl)CC1 | inactive | – |
| CCOC(=O)COc1ccccc1/C=C\[N+](=O)[O-] | inactive | – |
| O=C(Nc1cccc(F)c1)N(Cc1ccc(Cl)cc1)CC(O)C(F)(F)F (stereo not given) | inactive | – |
| O=C1NC(=S)S/C1=C\C=C\c1ccc([N+](=O)[O-])o1 | inactive | – |
| Cc1cccc(OCC(=O)N/N=C\C=C\c2ccc3c(c2)OCO3)c1C | > 10 µM (inactive) | – |
| O/N=C(\c1ccc(Cl)cc1Cl)c1ncc(C(F)(F)F)cc1Cl | – | 5.22 |
| O=C(Cc1ccccc1)Nc1cccc(N2C(=O)C=CC2=O)c1 | inactive | – |
| CC1=C(CO)C(=O)OC([C@@H](C)C2CC[C@H]3C4C[C@H]5O[C@]56[C@@H](O)C=CC(=O)[C@]6(C)C4CC[C@]23C)C1 (stereo not given in full) | > 10 µM (inactive) | – |
